Test results from ChEMBL document CHEMBL1141367, “Substituted 2-[(4-aminomethyl)phenoxy]-2-methylpropionic acid PPARalpha agonists. 1. Discovery of a novel series of potent HDLc raising agents” (J Med Chem, 2007).

Experiments:
[1] = Half life in Beagle dog plasma at 2 mg/kg, iv; format: ADME, organism-based, Canis lupus familiaris; parameters: dose 2 mg/kg, route intravenous
[2] = Plasma concentration in Wistar rat at 3 mg/kg, po after 1.5 hrs; format: ADME, organism-based; parameters: dose 3 mg/kg, route oral
[3] = Plasma clearance in Beagle dog at 2 mg/kg, iv; format: ADME, organism-based, Canis lupus familiaris; parameters: dose 2 mg/kg, route intravenous
[4] = Volume of distribution in Beagle dog at 2 mg/kg, iv; format: ADME, organism-based, Canis lupus familiaris; parameters: dose 2 mg/kg, route intravenous; conditions: in vivo, read-out: Vdss
Mus musculus [5] = assay: Decrease in VLDL cholesterol in human Apo-A-I transgenic C57BL/6 mouse at 1 mg/kg, po; format: functional; parameters: scale not given: the % may be the effect or the level left
Mus musculus [6] = assay: Decrease in plasma TG level in human Apo-A-I transgenic C57BL/6 mouse at 1 mg/kg, po; format: functional; parameters: scale not given: the % may be the effect or the level left
[7] = biological target: T1, Peroxisome proliferator-activated receptor alpha (Homo sapiens) (UniProt Q07869); assay: Agonist potency at PPARalpha expressed in CV1 cells relative to GW-590735; format: functional, cell-based; conditions: CV-1
T1 sequence (whole entry): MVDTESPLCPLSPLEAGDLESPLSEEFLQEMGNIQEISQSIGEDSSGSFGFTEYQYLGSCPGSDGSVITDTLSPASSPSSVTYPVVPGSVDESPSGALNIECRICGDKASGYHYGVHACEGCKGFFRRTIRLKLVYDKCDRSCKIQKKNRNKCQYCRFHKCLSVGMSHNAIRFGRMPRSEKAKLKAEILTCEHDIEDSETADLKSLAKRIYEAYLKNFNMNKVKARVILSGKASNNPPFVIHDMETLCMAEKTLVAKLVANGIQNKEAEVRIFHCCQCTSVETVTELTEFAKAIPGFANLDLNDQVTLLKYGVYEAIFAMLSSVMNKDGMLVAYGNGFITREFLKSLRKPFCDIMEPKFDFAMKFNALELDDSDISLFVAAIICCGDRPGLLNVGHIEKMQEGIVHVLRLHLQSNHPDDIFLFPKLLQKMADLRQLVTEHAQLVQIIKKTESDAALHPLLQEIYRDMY

Mus musculus [8] = assay: Decrease in plasma TG level in human Apo-A-I transgenic C57BL/6 mouse at 0.5 mg/kg, po; format: functional; parameters: scale not given: the % may be the effect or the level left
[9] = Bioavailability in Beagle dog at 3 mg/kg, po; format: ADME, organism-based, Canis lupus familiaris; conditions: in vivo
Mus musculus [10] = assay: Decrease in VLDL cholesterol in human Apo-A-I transgenic C57BL/6 mouse at 5 mg/kg, po; format: functional; parameters: scale not given: the % may be the effect or the level left
[11] = Volume of distribution in Wistar rat at 2.7 mg/kg, iv; format: ADME, organism-based; parameters: dose 2.7 mg/kg, route intravenous; conditions: in vivo, read-out: Vdss
Mus musculus [12] = assay: Decrease in LDL cholesterol level in human Apo-A-I transgenic C57BL/6 mouse at 1 mg/kg, po; format: functional; parameters: scale not given: the % may be the effect or the level left
Mus musculus [13] = assay: Increase in HDL cholesterol level in human Apo-A-I transgenic C57BL/6 mouse at 0.5 mg/kg, po; format: functional

## Cc1nc(-c2ccc(C(F)(F)F)cc2)sc1C(=O)NCc1ccc(OC(C)(C)C(=O)O)cc1 [GW590735]
[1]
  half-life: 2.6 h
[2]
  concentration at 1.5 h: 1460 ng/mL
[3]
  clearance: 13 mL/min/kg
[4]
  Vd: 2.8 L/kg
Mus musculus [5]
  Activity: 63%
Mus musculus [6]
  Activity: 48%
[7]
  Activity: 95%
Mus musculus [8]
  Activity: 37%
[9]
  bioavailability: 85%
Mus musculus [10]
  Activity: 86%
[11]
  Vd: 1 L/kg
Mus musculus [12]
  Activity: 65%
Mus musculus [13]
  Activity: 43%
